For assay [1], the target named is T1, TLR7 (Mus musculus, UniProt P58681).
T1 construct: endogenous in cells; host or cells: RAW 264.7
T1 sequence (P58681 27-1050): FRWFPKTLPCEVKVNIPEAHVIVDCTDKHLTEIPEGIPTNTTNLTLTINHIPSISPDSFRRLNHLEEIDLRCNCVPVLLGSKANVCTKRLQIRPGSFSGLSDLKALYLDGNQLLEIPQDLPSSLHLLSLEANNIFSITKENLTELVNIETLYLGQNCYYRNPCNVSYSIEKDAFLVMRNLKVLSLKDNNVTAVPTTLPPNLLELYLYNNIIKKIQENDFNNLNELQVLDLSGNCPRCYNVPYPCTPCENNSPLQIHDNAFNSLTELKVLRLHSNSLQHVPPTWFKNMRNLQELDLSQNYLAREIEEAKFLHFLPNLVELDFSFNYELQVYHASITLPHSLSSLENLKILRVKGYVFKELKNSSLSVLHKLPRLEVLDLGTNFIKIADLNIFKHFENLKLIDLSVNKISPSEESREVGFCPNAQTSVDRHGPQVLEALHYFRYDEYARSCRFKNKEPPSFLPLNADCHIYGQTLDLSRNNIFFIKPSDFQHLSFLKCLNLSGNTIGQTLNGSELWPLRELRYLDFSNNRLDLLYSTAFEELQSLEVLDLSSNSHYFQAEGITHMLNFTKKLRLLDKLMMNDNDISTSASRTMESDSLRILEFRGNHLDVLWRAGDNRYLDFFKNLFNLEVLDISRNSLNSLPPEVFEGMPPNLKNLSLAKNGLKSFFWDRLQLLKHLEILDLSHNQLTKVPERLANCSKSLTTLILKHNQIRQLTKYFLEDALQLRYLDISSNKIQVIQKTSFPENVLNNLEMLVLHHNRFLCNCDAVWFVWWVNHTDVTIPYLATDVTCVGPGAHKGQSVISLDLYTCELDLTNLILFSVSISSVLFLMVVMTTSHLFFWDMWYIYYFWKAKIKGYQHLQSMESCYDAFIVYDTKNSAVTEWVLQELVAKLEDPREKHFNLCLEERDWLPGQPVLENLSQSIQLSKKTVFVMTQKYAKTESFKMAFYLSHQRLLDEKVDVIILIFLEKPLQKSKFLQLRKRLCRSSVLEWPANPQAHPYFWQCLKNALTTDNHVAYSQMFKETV
Description: TNF-α secretion ELISA after TLR7 agonist imiquimod (IMQ) in RAW 264.7 cells. It is filed as cell-based. As to conditions: SK21 to SK82 at 0.5 μM or 2 μM, Imiquimod 1 μg/ml. As to the method:
(§1) In order to determine the inhibitory activities of the test-ligand, RAW 264.7 cells were pretreated with each candidate compound for 1 hour, then treated with Pam3CSK4 (synthetic triacyl lipopeptide; TLR1/2, Invitrogen), FSL-1 (synthetic diacyl lipoprotein, TLR2/6, 100 ng/ml), lipopolysaccharide (LPS, TLR4, Sigma Aldrich), imiquimod (IMQ, TLR7, Invitrogen), and ODN2395 (type C CpG repeat motif DNA oligo(5′-[…]-3), TLR9, Bioneer) ligand for 4 hours, and treated with poly I:C (I:C repeat motif double-stranded RNA, TLR3, Invitrogen) and TL8-506 (TLR8, Invitrogen) showing delayed reactivity for 24 hours. After activation of TLR, the supernatant was diluted in an appropriate ratio so as to measure within the standard dose range, transferred to a pre-coated 96-well assay plate, and then treated with mouse TNF-alpha secretion level in accordance with the manufacturer's instructions using a mouse-TNF-alpha ELISA-kit (Invitrogen).
(§2) In order to plot the concentration-dependent LC50 curves, treatment with the SK series ligands at different concentrations up to 200 μM (the highest concentration that could be treated within the level of 0.5% DMSO) was performed. Then, cell viability and toxicity response upon treatment with ligands were analyzed by MTT as described in Examples 1-3. Cell viability in each plot was normalized from negative control (100%; no treatment) to positive control (highest concentration of test-ligand), and LC50 was determined by non-linear regression (Graph Pad Prism 7.0). In order to plot the concentration-dependent IC50 curves, pre-treatment with the SK series ligands was performed at different concentrations up to 50 μM (twice the initial concentration). Cell responses mediated by TLR7 and TLR9 (levels of TNF-α secretion) were analyzed by ELISA as described in Examples 1-4. The cytokine level in each plot was normalized from negative control (non-treated) to positive control (treatment with ligand), and IC50 was determined by non-linear regression (Graph Pad Prism 7.0).
(§3) In order to select potential inhibitory molecules against TLR3/TLR7/TLR8/TLR9 activation, first, MTT (3-(4,5-dimethylthiazol-2-yl)-2,5-diphenyltetrazolium bromide) cell viability assay (FIG. 7) was performed upon treatment with a set of ligands from SK21 to SK82 at a concentration of 20 μM and the inhibitory activity thereof was evaluated by an ELISA assay to monitor the level of TNF-α secretion in RAW 264.7 cells. The experimental ligands from SK21 to SK82 were administered at 0.5 μM or 2 μM to the RAW 264.7 cells and stimulated with Imiquimod (TLR7, 1 μg/ml) and OND2395 (TLR9, 0.5 μM).
In general terms: ELISA stands for enzyme-linked immunosorbent assay.

Assay [2] deals with T2, TLR9 (Mus musculus, UniProt Q9EQU3).
T2 construct: endogenous in cells; host or cells: RAW 264.7
T2 sequence (Q9EQU3 26-1032): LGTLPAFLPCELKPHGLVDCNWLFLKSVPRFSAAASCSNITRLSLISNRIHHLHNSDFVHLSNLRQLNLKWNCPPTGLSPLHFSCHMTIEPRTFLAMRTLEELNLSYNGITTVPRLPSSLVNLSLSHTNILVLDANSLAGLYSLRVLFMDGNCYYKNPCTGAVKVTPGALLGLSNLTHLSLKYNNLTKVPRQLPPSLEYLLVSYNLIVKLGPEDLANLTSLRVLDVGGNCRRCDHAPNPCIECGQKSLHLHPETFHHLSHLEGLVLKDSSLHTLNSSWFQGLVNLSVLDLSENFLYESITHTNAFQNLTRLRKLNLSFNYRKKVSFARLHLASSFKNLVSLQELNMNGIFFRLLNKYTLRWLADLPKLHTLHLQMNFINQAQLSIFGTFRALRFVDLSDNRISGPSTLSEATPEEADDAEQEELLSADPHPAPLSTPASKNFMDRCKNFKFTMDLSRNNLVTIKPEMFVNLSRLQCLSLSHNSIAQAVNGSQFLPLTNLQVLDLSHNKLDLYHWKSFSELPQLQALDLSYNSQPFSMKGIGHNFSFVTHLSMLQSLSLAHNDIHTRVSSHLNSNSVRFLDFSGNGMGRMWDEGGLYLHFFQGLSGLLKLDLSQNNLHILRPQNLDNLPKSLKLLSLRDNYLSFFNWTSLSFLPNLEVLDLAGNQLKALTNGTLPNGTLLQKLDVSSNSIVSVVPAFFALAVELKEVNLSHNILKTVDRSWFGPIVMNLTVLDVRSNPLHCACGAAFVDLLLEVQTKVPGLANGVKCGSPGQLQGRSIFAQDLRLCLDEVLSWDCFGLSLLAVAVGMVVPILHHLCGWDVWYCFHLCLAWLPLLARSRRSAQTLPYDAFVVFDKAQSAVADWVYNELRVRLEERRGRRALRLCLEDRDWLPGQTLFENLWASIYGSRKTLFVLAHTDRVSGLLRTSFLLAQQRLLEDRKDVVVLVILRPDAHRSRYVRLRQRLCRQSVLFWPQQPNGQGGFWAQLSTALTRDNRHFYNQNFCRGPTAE
The assay can be described thus: TNF-α secretion ELISA after TLR9 agonist ODN2395 in RAW 264.7 cells. It is filed as cell-based. The note with it: SK21 to SK82 at 0.5 μM or 2 μM, ODN2395 0.5 μM. As to the method: as §1, §2, §3

Entries after “also recorded” stand apart in the source; their conditions may differ.

In the case of `CN(C)CCCn1c2ccc(OC(F)(F)F)cc2c2c(N)c3c(nc21)CCCC3` [SK61, 6-(3-(dimethylamino)propyl)-9-(trifluoromethoxy)-2,3,4,6-tetrahydro-1H-indolo[2,3-b]quinolin-11-amine], in assay [1], the “inhibitory activity against TLR7 (level of TNF-α secretion)” value (“inhibitory activity against TLR7” below) was “significant inhibitory activity; also recorded: significantly reduced”. Also, the “inhibitory activity against TLR9 (level of TNF-α secretion)” value (from here on “inhibitory activity against TLR9”) in assay [2] was “significant inhibitory activity; also recorded: significantly reduced”.

Take `CN(C)CCCn1c2ccc(C#N)cc2c2c(N)c3c(nc21)CCCC3` [SK62, 11-amino-6-(3-(dimethylamino)propyl)-2,3,4,6-tetrahydro-1H-indolo[2,3-b]quinolin-9-carbonitrile]: in assay [1], the “inhibitory activity against TLR7” value is listed as “significant inhibitory activity; also recorded: significantly reduced”. For the same compound, the “inhibitory activity against TLR9” value in assay [2] was “significant inhibitory activity; also recorded: significantly reduced”.

On to `CN(C)CCCn1c2ccc(C(F)(F)F)cc2c2c(N)c3c(nc21)CCCC3` [SK63, 6-(3-(dimethylamino)propyl)-9-(trifluoromethyl)-2,3,4,6-tetrahydro-1H-indolo[2,3-b]quinolin-11-amine], for which, in assay [1], the “inhibitory activity against TLR7” value is “significant inhibitory activity; also recorded: significantly reduced”. Besides, the “inhibitory activity against TLR9” value in assay [2] is “significant inhibitory activity; also recorded: significantly reduced”.

Turning to `COc1ccc2c3c(N)c4c(nc3n(CCCN(C)C)c2c1)CCCC4` [SK65, 6-(3-(dimethylamino)propyl)-8-methoxy-2,3,4,6-tetrahydro-1H-indolo[2,3-b]quinolin-11-amine], in assay [1], the “inhibitory activity against TLR7” value is given as “significant inhibitory activity; also recorded: significantly reduced”. Further, the “inhibitory activity against TLR9” value in assay [2] is “significant inhibitory activity; also recorded: significantly reduced”.

As to `CN(C)CCCn1c2ccc(OCc3ccccc3)cc2c2c(N)c3c(nc21)CCCC3` [SK69, 9-(benzyloxy)-6-(3-(dimethylamino)propyl)-2,3,4,6-tetrahydro-1H-indolo[2,3-b]quinolin-11-amine], the “inhibitory activity against TLR7” value in assay [1] is “significant inhibitory activity; also recorded: significantly reduced”. In assay [2], the “inhibitory activity against TLR9” value was “significant inhibitory activity; also recorded: significantly reduced”.

For the compound `CC(C)Oc1ccc2c(c1)c1c(N)c3c(nc1n2CCCN(C)C)CCCC3` [SK70, 6-(3-(dimethylamino)propyl)-9-isopropoxy-2,3,4,6-tetrahydro-1H-indolo[2,3-b]quinolin-11-amine], the “inhibitory activity against TLR7” value in assay [1] is listed as “significant inhibitory activity; also recorded: significantly reduced”. The “inhibitory activity against TLR9” value in assay [2] was “significant inhibitory activity; also recorded: significantly reduced”.

Take `CN(C)CCCn1c2ccc(O)cc2c2c(N)c3c(nc21)CCCC3` [SK71, 11-amino-6-(3-(dimethylamino)propyl)-2,3,4,6-tetrahydro-1H-indolo[2,3-b]quinolin-9-ol]: the “inhibitory activity against TLR7” value in assay [1] is “significant inhibitory activity; also recorded: significantly reduced”. In addition, the “inhibitory activity against TLR9” value in assay [2] was “significant inhibitory activity; also recorded: significantly reduced”.

Turning to `CN(C)CCCNc1c2c(nc3c1c1c4ccccc4ccc1n3CCCN(C)C)CCCC2` [SK72, N1-(7-(3-(dimethylamino)propyl)-9,10,11,12-tetrahydro-7H-benzo[4,5]indolo[2,3-b]quinolin-13-yl)-N3,N3-dimethylpropane-1,3-diamine], the “inhibitory activity against TLR7” value in assay [1] is recorded as “significant inhibitory activity; also recorded: significantly reduced”. For the same compound, the “inhibitory activity against TLR9” value in assay [2] was “significant inhibitory activity; also recorded: significantly reduced”.

For `CN(C)CCCn1c2ccc3ccccc3c2c2c(N)c3c(nc21)CCCC3` [SK74, 7-(3-(dimethylamino)propyl)-9,10,11,12-tetrahydro-7H-benzo[4,5]indolo[2,3-b]quinolin-13-amine], the “inhibitory activity against TLR7” value was “significantly reduced” in assay [1] and “significant inhibitory activity” in assay [1] (listed as SK 74). Further, the “inhibitory activity against TLR9” value in assay [2] is on record as “significantly reduced”; in assay [2] (listed as SK 74), “significant inhibitory activity”.

Regarding `CNCCCn1c(C)c(C)c2c(N)c3c(nc21)CCCCCC3` [SK75, 2,3-dimethyl-1-(3-(methylamino)propyl)-5,6,7,8,9,10-hexahydro-1H-cycloocta[b]pyrrolo[3,2-e]pyridin-4-amine], the “inhibitory activity against TLR7” value in assay [1] is listed as “significant inhibitory activity; also recorded: significantly reduced”. In addition, the “inhibitory activity against TLR9” value in assay [2] is given as “significant inhibitory activity; also recorded: significantly reduced”.

These data come from patent US12516058B2, “Small-molecule compounds for controlling endosomal toll-like receptors and therapeutic agent for autoimmune diseases using same” (priority 2020, dated 2026).
